Measured values taken from ChEMBL document CHEMBL1275467, “Spread of OXA-48-positive carbapenem-resistant Klebsiella pneumoniae isolates in Istanbul, Turkey” (2008).
≈ marks a conversion by molar mass, not a printed value.

How the values were obtained:
Type in all cases: functional
Escherichia coli [1] = experiment: Antimicrobial activity against Escherichia coli J53 by Etest
Klebsiella pneumoniae [2] = experiment: Antimicrobial activity against Klebsiella pneumoniae containing PFGE clone A expressing beta-lactamase Oxa-48, TEM-1, SHV-12 and Oxa-9 by Etest
Escherichia coli [3] = experiment: Antimicrobial activity against Escherichia coli J53 harboring beta-lactamase Oxa-48 by Etest
Klebsiella pneumoniae [4] = experiment: Antimicrobial activity against Klebsiella pneumoniae containing PFGE clone B expressing beta-lactamase Oxa-48, TEM-1, CTX-M-15 and Oxa-1 by Etest
Klebsiella pneumoniae [5] = experiment: Antimicrobial activity against Klebsiella pneumoniae isolate 11 expressing beta-lactamase Oxa-48, TEM-1 and Oxa-1 by Etest
Klebsiella pneumoniae [6] = experiment: Antimicrobial activity against Klebsiella pneumoniae isolate 21 expressing beta-lactamase Oxa-48, TEM-1 and Oxa-9 by Etest
Escherichia coli [7] = experiment: Antimicrobial activity against Escherichia coli J53 harboring beta-lactamase TEM-1, SHV-12 and Oxa-9 by Etest
Escherichia coli [8] = experiment: Antimicrobial activity against Escherichia coli J53 harboring beta-lactamase TEM-1, CTX-M-15 and Oxa-1 by Etest
Escherichia coli [9] = experiment: Antimicrobial activity against Escherichia coli J53 by Etest in presence of beta-lactamase inhibitor clavulanic acid
Escherichia coli [10] = experiment: Antimicrobial activity against Escherichia coli J53 harboring beta-lactamase Oxa-48 by Etest in presence of beta-lactamase inhibitor clavulanic acid
Klebsiella pneumoniae [11] = experiment: Antimicrobial activity against Klebsiella pneumoniae isolate 21 expressing beta-lactamase Oxa-48, TEM-1 and Oxa-9 by Etest in presence of beta-lactamase inhibitor clavulanic acid
Klebsiella pneumoniae [12] = experiment: Antimicrobial activity against Klebsiella pneumoniae containing PFGE clone B expressing beta-lactamase Oxa-48, TEM-1, CTX-M-15 and Oxa-1 by Etest in presence of beta-lactamase inhibitor clavulanic acid
Klebsiella pneumoniae [13] = experiment: Antimicrobial activity against Klebsiella pneumoniae isolate 11 expressing beta-lactamase Oxa-48, TEM-1 and Oxa-1 by Etest in presence of beta-lactamase inhibitor clavulanic acid
Escherichia coli [14] = experiment: Antimicrobial activity against Escherichia coli J53 harboring beta-lactamase TEM-1, CTX-M-15 and Oxa-1 by Etest in presence of beta-lactamase inhibitor clavulanic acid
Escherichia coli [15] = experiment: Antimicrobial activity against Escherichia coli J53 harboring beta-lactamase TEM-1, SHV-12 and Oxa-9 by Etest in presence of beta-lactamase inhibitor clavulanic acid
Klebsiella pneumoniae [16] = experiment: Antimicrobial activity against Klebsiella pneumoniae containing PFGE clone A expressing beta-lactamase Oxa-48, TEM-1, SHV-12 and Oxa-9 by Etest in presence of beta-lactamase inhibitor clavulanic acid
Escherichia coli [17] = experiment: Antimicrobial activity against Escherichia coli J53 by Etest in presence of beta-lactamase inhibitor Tazobactam
Klebsiella pneumoniae [18] = experiment: Antimicrobial activity against Klebsiella pneumoniae containing PFGE clone A expressing beta-lactamase Oxa-48, TEM-1, SHV-12 and Oxa-9 by Etest in presence of beta-lactamase inhibitor Tazobactam
Escherichia coli [19] = experiment: Antimicrobial activity against Escherichia coli J53 harboring beta-lactamase TEM-1, SHV-12 and Oxa-9 by Etest in presence of beta-lactamase inhibitor Tazobactam
Escherichia coli [20] = experiment: Antimicrobial activity against Escherichia coli J53 harboring beta-lactamase TEM-1, CTX-M-15 and Oxa-1 by Etest in presence of beta-lactamase inhibitor Tazobactam
Escherichia coli [21] = experiment: Antimicrobial activity against Escherichia coli J53 harboring beta-lactamase Oxa-48 by Etest in presence of beta-lactamase inhibitor Tazobactam
Klebsiella pneumoniae [22] = experiment: Antimicrobial activity against Klebsiella pneumoniae containing PFGE clone B expressing beta-lactamase Oxa-48, TEM-1, CTX-M-15 and Oxa-1 by Etest in presence of beta-lactamase inhibitor Tazobactam
Klebsiella pneumoniae [23] = experiment: Antimicrobial activity against Klebsiella pneumoniae isolate 11 expressing beta-lactamase Oxa-48, TEM-1 and Oxa-1 by Etest in presence of beta-lactamase inhibitor Tazobactam
Klebsiella pneumoniae [24] = experiment: Antimicrobial activity against Klebsiella pneumoniae isolate 21 expressing beta-lactamase Oxa-48, TEM-1 and Oxa-9 by Etest in presence of beta-lactamase inhibitor Tazobactam

Compound	MIC (Escherichia coli [1])	MIC (Klebsiella pneumoniae [2])	MIC (Escherichia coli [3])	MIC (Klebsiella pneumoniae [4])	MIC (Klebsiella pneumoniae [5])	MIC (Klebsiella pneumoniae [6])	MIC (Escherichia coli [7])	MIC (Escherichia coli [8])	further results
C[C@@H](O)[C@H]1C(=O)N2C(C(=O)O)=C(S[C@@H]3CN[C@H](C(=O)Nc4cccc(C(=O)O)c4)C3)[C@H](C)[C@H]12	< 1 µg/mL	> 32 µg/mL	0.25 µg/mL (≈ 0.526 µM)	> 32 µg/mL	> 32 µg/mL	> 32 µg/mL	–	–	–
CO/N=C(\C(=O)N[C@@H]1C(=O)N2C(C(=O)[O-])=C(C[N+]3(C)CCCC3)CS[C@H]12)c1csc(N)n1	0.125 µg/mL (≈ 0.26 µM)	–	< 0.5 µg/mL	–	4 µg/mL (≈ 8.32 µM)	4 µg/mL (≈ 8.32 µM)	0.5 µg/mL (≈ 1.04 µM)	4 µg/mL (≈ 8.32 µM)	–
NCC[C@H](O)C(=O)N[C@@H]1C[C@H](N)[C@@H](O[C@H]2O[C@H](CN)[C@@H](O)[C@H](O)[C@H]2O)[C@H](O)[C@H]1O[C@H]1O[C@H](CO)[C@@H](O)[C@H](N)[C@H]1O [AMIKACIN]	–	16 µg/mL (≈ 27.3 µM)	–	2 µg/mL (≈ 3.42 µM)	–	–	–	–	–
CC1(C)S[C@@H]2[C@H](NC(=O)[C@H](N)c3ccc(O)cc3)C(=O)N2[C@H]1C(=O)O [AMOXICILLIN]	1 µg/mL (≈ 2.74 µM)	> 512 µg/mL	> 512 µg/mL	> 512 µg/mL	> 512 µg/mL	> 512 µg/mL	> 512 µg/mL	> 512 µg/mL	MIC (Escherichia coli [9]): 1 µg/mL; MIC (Escherichia coli [10]): > 512 µg/mL; MIC (Klebsiella pneumoniae [11]): > 512 µg/mL; MIC (Klebsiella pneumoniae [12]): > 512 µg/mL; MIC (Klebsiella pneumoniae [13]): > 512 µg/mL; MIC (Escherichia coli [14]): > 513 µg/mL; MIC (Escherichia coli [15]): > 512 µg/mL; MIC (Klebsiella pneumoniae [16]): > 512 µg/mL
C[C@H]1[C@H](NC(=O)/C(=N\OC(C)(C)C(=O)O)c2csc(N)n2)C(=O)N1S(=O)(=O)O [AZTREONAM]	0.5 µg/mL (≈ 1.15 µM)	–	< 0.125 µg/mL	–	0.5 µg/mL (≈ 1.15 µM)	0.5 µg/mL (≈ 1.15 µM)	64 µg/mL (≈ 147 µM)	8 µg/mL (≈ 18.4 µM)	–
CO/N=C(\C(=O)N[C@@H]1C(=O)N2C(C(=O)O)=C(COC(C)=O)CS[C@H]12)c1csc(N)n1 [CEFOTAXIME]	0.5 µg/mL (≈ 1.1 µM)	> 512 µg/mL	0.5 µg/mL (≈ 1.1 µM)	> 512 µg/mL	4 µg/mL (≈ 8.78 µM)	4 µg/mL (≈ 8.78 µM)	4 µg/mL (≈ 8.78 µM)	> 32 µg/mL	–
CO[C@@]1(NC(=O)Cc2cccs2)C(=O)N2C(C(=O)O)=C(COC(N)=O)CS[C@@H]21 [CEFOXITIN]	4 µg/mL (≈ 9.36 µM)	16 µg/mL (≈ 37.4 µM)	4 µg/mL (≈ 9.36 µM)	> 32 µg/mL	16 µg/mL (≈ 37.4 µM)	> 32 µg/mL	2 µg/mL (≈ 4.68 µM)	2 µg/mL (≈ 4.68 µM)	–
CC(C)(O/N=C(\C(=O)N[C@@H]1C(=O)N2C(C(=O)[O-])=C(C[n+]3ccccc3)CS[C@H]12)c1csc(N)n1)C(=O)O [CEFTAZIDIME]	1 µg/mL (≈ 1.83 µM)	> 512 µg/mL	1 µg/mL (≈ 1.83 µM)	> 512 µg/mL	2 µg/mL (≈ 3.66 µM)	2 µg/mL (≈ 3.66 µM)	64 µg/mL (≈ 117 µM)	128 µg/mL (≈ 234 µM)	–
C[C@@H](O)[C@H]1C(=O)N2C(C(=O)O)=C(SCCNC=N)C[C@H]12 [IMIPENEM ANHYDROUS]	–	4 µg/mL (≈ 13.4 µM)	0.5 µg/mL (≈ 1.67 µM)	4 µg/mL (≈ 13.4 µM)	8 µg/mL (≈ 26.7 µM)	8 µg/mL (≈ 26.7 µM)	< 1 µg/mL	< 1 µg/mL	–
NC[C@H]1O[C@H](O[C@H]2[C@H](O)[C@@H](O[C@H]3O[C@H](CO)[C@@H](O)[C@H](N)[C@H]3O)[C@H](N)C[C@@H]2N)[C@H](O)[C@@H](O)[C@@H]1O [KANAMYCIN]	–	> 256 µg/mL	–	128 µg/mL (≈ 264 µM)	–	–	–	–	–
C[C@@H](O)[C@H]1C(=O)N2C(C(=O)O)=C(S[C@@H]3CN[C@H](C(=O)N(C)C)C3)[C@H](C)[C@H]12 [MEROPENEM]	< 1 µg/mL	> 32 µg/mL	0.12 µg/mL (≈ 0.313 µM)	6 µg/mL (≈ 15.6 µM)	–	–	–	–	–
CO[C@@]1(NC(=O)C(C(=O)O)c2ccc(O)cc2)C(=O)N2C(C(=O)O)=C(CSc3nnnn3C)CO[C@@H]21 (some centres not stated) [MOXALACTAM]	1 µg/mL (≈ 1.92 µM)	> 16 µg/mL	2 µg/mL (≈ 3.84 µM)	> 16 µg/mL	–	–	< 0.5 µg/mL	< 0.5 µg/mL	–
CCn1cc(C(=O)O)c(=O)c2ccc(C)nc21 [NALIDIXIC ACID]	–	> 64 µg/mL	–	> 64 µg/mL	–	–	–	–	–
CCN[C@@H]1C[C@H](N)[C@@H](O[C@H]2OC(CN)=CC[C@H]2N)[C@H](O)[C@H]1O[C@H]1OC[C@](C)(O)[C@H](NC)[C@H]1O [NETILMICIN]	–	> 128 µg/mL	–	3 µg/mL (≈ 6.31 µM)	–	–	–	–	–
CCn1cc(C(=O)O)c(=O)c2cc(F)c(N3CCNCC3)cc21 [NORFLOXACIN]	–	8 µg/mL (≈ 25.1 µM)	–	> 256 µg/mL	–	–	–	–	–
CC1COc2c(N3CCN(C)CC3)c(F)cc3c(=O)c(C(=O)O)cn1c23 (configuration not stated) [OFLOXACIN]	–	2 µg/mL (≈ 5.53 µM)	–	> 64 µg/mL	–	–	–	–	–
CCN1CCN(C(=O)N[C@@H](C(=O)N[C@@H]2C(=O)N3[C@@H]2SC(C)(C)[C@@H]3C(=O)O)c2ccccc2)C(=O)C1=O [PIPERACILLIN]	4 µg/mL (≈ 7.73 µM)	> 512 µg/mL	> 512 µg/mL	> 512 µg/mL	> 512 µg/mL	> 512 µg/mL	> 512 µg/mL	> 512 µg/mL	MIC (Escherichia coli [17]): 4 µg/mL; MIC (Klebsiella pneumoniae [18]): > 512 µg/mL; MIC (Escherichia coli [19]): > 4 µg/mL; MIC (Escherichia coli [20]): > 4 µg/mL; MIC (Escherichia coli [21]): 64 µg/mL; MIC (Klebsiella pneumoniae [22]): > 512 µg/mL; MIC (Klebsiella pneumoniae [23]): > 512 µg/mL; MIC (Klebsiella pneumoniae [24]): > 512 µg/mL
CN(C)[C@@H]1C(O)=C(C(N)=O)C(=O)[C@@]2(O)C(O)=C3C(=O)c4c(O)cccc4[C@@](C)(O)[C@H]3C[C@@H]12 [TETRACYCLINE]	–	> 256 µg/mL	–	> 256 µg/mL	–	–	–	–	–
CC1(C)S[C@@H]2[C@H](NC(=O)[C@H](C(=O)O)c3ccsc3)C(=O)N2[C@H]1C(=O)O [TICARCILLIN]	4 µg/mL (≈ 10.4 µM)	> 512 µg/mL	> 512 µg/mL	> 512 µg/mL	> 512 µg/mL	> 512 µg/mL	> 512 µg/mL	> 514 µg/mL	MIC (Escherichia coli [9]): 4 µg/mL; MIC (Escherichia coli [10]): > 512 µg/mL; MIC (Klebsiella pneumoniae [11]): > 512 µg/mL; MIC (Klebsiella pneumoniae [12]): > 512 µg/mL; MIC (Klebsiella pneumoniae [13]): > 512 µg/mL; MIC (Escherichia coli [14]): > 512 µg/mL; MIC (Escherichia coli [15]): > 512 µg/mL; MIC (Klebsiella pneumoniae [16]): > 512 µg/mL
NC[C@H]1O[C@H](O[C@H]2[C@H](O)[C@@H](O[C@H]3O[C@H](CO)[C@@H](O)[C@H](N)[C@H]3O)[C@H](N)C[C@@H]2N)[C@H](N)C[C@@H]1O [TOBRAMYCIN]	–	> 64 µg/mL	–	> 64 µg/mL	–	–	–	–	–
COc1cc(Cc2cnc(N)nc2N)cc(OC)c1OC [TRIMETHOPRIM]	–	> 32 µg/mL	–	> 32 µg/mL	–	–	–	–	–
GENTAMICIN	–	> 64 µg/mL	–	1 µg/mL	–	–	–	–	–
